Test results published in article PMC7463651, “Phase I/Ib Study of Tenalisib (RP6530), a Dual PI3K δ/γ Inhibitor in Patients with Relapsed/Refractory T-Cell Lymphoma” (Cancers, 2020).
“And” between values parts separate entries of the source, which are not always exact repeats. Equal entries are not always repeated. “Also recorded” adds a separate entry of the source.

Columns and labels:
[1] = test system: relapsed/refractory T-cell lymphoma (PTCL and CTCL); experiment: Efficacy assessment (ORR, DoR), all evaluable patients; assay type: in vivo, human; settings: for Median DoR (95% CI) / ORR (95% CI): All
Method: (§1) Efficacy assessments included radiological, bone marrow biopsy/aspiration and skin assessments. In some cases, bone marrow disease alone was used for disease assessment. In these cases, response was reported as CR or non-CR.
(§2) In PTCL patients, radiological assessment was performed at screening, Day 1 of Cycle 3 and 5 and approximately 12 weeks thereafter. Assessments of skin lesions in PTCL patients were performed, if applicable. Bone marrow biopsy/aspirate was performed in patients without measurable but assessable disease at screening and on Day 1 of Cycle 3 and 5, then also approximately 12 weeks thereafter to confirm a CR.
In CTCL patients, assessment of skin lesions was performed at screening, Day 1 of Cycle 3 and 5, approximately 12 weeks thereafter and at the end of treatment (EOT). Skin photographs were obtained for half body global and up to 5 selected representative index lesions at baseline, at Day 1 of Cycle 3, EOT, at PR/CR/progressive disease (PD) and as required as per the discretion of the Investigator. In case of nodal involvement, radiological assessment was performed at screening, Day 1 of Cycle 3 and 5 and approximately 12 weeks thereafter. Skin biopsy was performed from the most indurated area at screening, on C3D1 and to confirm a CR.
(§3) The efficacy parameters included ORR and DoR. Revised Response Criteria for Malignant Lymphoma (Cheson 2007) was used for evaluation of PTCL [21]. International Society for Cutaneous Lymphomas Response Criteria for Mycosis Fungoides and Sezary Syndrome (SS) and Cutaneous Lymphoma Task Force of the European Organization for Research and Treatment of Cancer criteria were used for evaluation of CTCL patients. For skin scoring, the modified Severity Weighted Assessment Tool was used. For local index lesion skin scoring, the Composite Assessment of Index Lesion Severity was used.

CD30, IL-31 and IL-32α = experiment: Correlative biomarker analysis in plasma; assay type: in vivo, human
Method: Assessment of CD30 and soluble IL-2 receptor (sIL-2R) for PTCL and cutaneous T-cell attracting chemokine (CTACK), IL-31 and IL-32α for CTCL were performed in plasma at screening, pre-dose and after 1 h on Day 1 of Cycle 3, at EOT and/or to confirm a response.

relapsed/refractory PTCL = experiment: Efficacy assessment (ORR, DoR), PTCL patients; assay type: in vivo, human; settings: for Median DoR (95% CI) / ORR (95% CI): PTCL
Method: as §1, §2, §3

patients = settings: cumulative safety data across two studies; cited from earlier work
PI3K δ/γ = settings: cited from earlier work
[2] = test system: patient-derived primary cell lines representative of B and T lymphoma cell lines; parameters: method as in doi:10.1182/blood.V122.21.4418.4418; settings: cited from earlier work
[3] = parameters: method as in ref 27 = [27]; 27. Barde P. Rhizen, Switzerland Unpublished work 2016; settings: healthy volunteers, high fat meal; cited from earlier work
[4] = Dose Escalation 800 mg Fasting, N = 3
[5] = Dose Escalation 800 mg Fed, N = 5
[6] = Dose Expansion 800 mg Fasting, N = 22
[7] = CTCL group, Cycle 3 Day 1 compared to baseline, correlated with responses
[8] = Dose Escalation 800 mg Fasting, N = 1
[9] = Dose Expansion 800 mg Fasting, N = 10

## CC[C@H](Nc1ncnc2[nH]cnc12)c1oc2ccccc2c(=O)c1-c1cccc(F)c1 [Tenalisib]
[1]; 35 evaluable patients
  Complete response (CR), number of patients: 3 patients
  Partial response (PR): 13 n (%) and 13 (37%) n (%)
  Progressive disease (PD): 8 (22.9%) n (%)
[1]; 35 evaluable patients, three patients
  Complete response (CR): 9%
[1]; Cumulative Total, N = 35
  Median DoR (95% CI): 4.9 months and 4.9 (4.3, 12.0) months
  ORR (95% CI): 45.7% and 45.7 (28.8, 63.4) %
[1]; Dose Escalation 200 mg, N = 3
  Median DoR (95% CI): 4.9 (-,-) months
  ORR (95% CI): 33.3 (0.8, 90.6) %
[1]; Dose Escalation 400 mg, N = 2
  Median DoR (95% CI): 2.4 (0.97, 3.8) months
  ORR (95% CI): 100.0 (15.8, 100.0) %
[1]; [4]
  Median DoR (95% CI): 10.9 (2.3, 19.5) months
  ORR (95% CI): 66.7 (9.4, 99.2) %
[1]; [5]
  Median DoR (95% CI): 3.3 (1.7, 4.9) months
  ORR (95% CI): 40.0 (5.3, 85.3) %
[1]; Dose Escalation Total, N = 13
  Median DoR (95% CI): 3.8 (0.7, 10.2) months
  ORR (95% CI): 53.8 (25.1, 80.8) %
[1]; [6]
  Median DoR (95% CI): 7.5 (4.7, 15.9) months
  ORR (95% CI): 40.9 (20.7, 63.6) %
[1]; out of 35 evaluable patients
  Patients who responded: 16 patients
[1]; responders
  Time of response: Most of the patients responded at Cycle 3 Day 1
CD30, IL-31 and IL-32α; [7]
  Plasma IL-31 levels: marked downregulation; also recorded: reductions
  Plasma IL-32α levels: marked downregulation; also recorded: reductions
CD30, IL-31 and IL-32α; PTCL patients, baseline to Cycle 3 Day 1, correlated with response
  Plasma CD30 levels: marked downregulation; also recorded: decrease in CD30 levels
relapsed/refractory PTCL; PTCL patients
  Partial response (PR): 4 (26.7%) n (%)
relapsed/refractory PTCL; PTCL patients, three patients
  Complete response (CR): 20%
relapsed/refractory PTCL; Cumulative Total, N = 15
  Median DoR (95% CI): 6.5 months and 6.5 (2.9, 14.9) months
  ORR (95% CI): 46.7% and 46.7 (21.3, 73.4) %
relapsed/refractory PTCL; Dose Escalation 200 mg, N = 2
  Median DoR (95% CI): 4.9 (-,-) months
  ORR (95% CI): 50.0 (1.3, 98.7) %
relapsed/refractory PTCL; Dose Escalation 400 mg, N = 1
  Median DoR (95% CI): 0.97 (-,-) months
  ORR (95% CI): 100.0 (2.5, 100.0) %
relapsed/refractory PTCL; [8]
  Median DoR (95% CI): 19.5 (-,-) months
  ORR (95% CI): 100.0 (2.5, 100.0) %
relapsed/refractory PTCL; Dose Escalation 800 mg Fed, N = 1
  ORR (95% CI): 0.0 (0.0, 97.5) %
relapsed/refractory PTCL; Dose Escalation Total, N = 5
  Median DoR (95% CI): 4.9 (0.0, 19.5) months
  ORR (95% CI): 60.0 (14.7, 94.7) %
relapsed/refractory PTCL; [9]
  Median DoR (95% CI): 7.0 (1.2, 17.3) months
  ORR (95% CI): 40.0 (12.2, 73.8) %
relapsed/refractory PTCL; three PTCL patients who achieved CR
  Median DoR: 13.3 months
patients
  Colitis and pneumonitis events: no events of colitis and pneumonitis
  Transaminitis incidence: 10%
PI3K δ/γ; PI3K δ/γ
  Inhibitory potency: nanomolar
PI3K δ/γ
  Selectivity over α and β PI3K isoforms: several fold
[2]
  Apoptotic and anti-proliferative activity: demonstrated apoptotic and anti-proliferative activity
[3]
  Effect of food on Cmax: no significant effect on Cmax
  Effect of food on overall exposure: increased the overall exposure
